Results: patent publication US8361516B2, “Composition comprising sarsasapogenin” (priority 2006, dated 2013)

Columns and labels:
3T3-L1 cells [1] = experiment: Stimulation of differentiation: G3PDH activity; format: cell-based; details: mean for n = 3 tests
Description: Principle: after an in vivo proliferation phase, the pre-adipocytes begin differentiating under the influence of specific endogenous factors (in particular, glucocorticoids and insulin). In vitro, those factors are included in the conventional cocktail used to trigger differentiation.
The maintenance or amplification of differentiation when the cells are subsequently cultured in a simple maintenance medium is determined by assay of glycerol-3-phosphate dehydrogenase, G3PDH (or GPDH). The enzyme is involved in energy metabolism. Its activity regularly increases through the differentiation process.
Protocol: as previously, 3T3-L1 cells were cultured to confluence, then underwent differentiation induction with the conventional cocktail and were incubated in the absence or presence of sarsasapogenin at various concentrations. After 3 days of incubation, the differentiation cocktail was replaced by culture maintenance medium in the presence or absence of sarsasapogenin. After 3 days of incubation, the cell layers were harvested and G3PDH activity determined.

3T3-L1 cells [2] = experiment: Stimulation of lipid uptake, red oil staining with image analysis; format: cell-based; details: mean for n = 3 tests
Description: Principle: adipocyte differentiation is a decisive stage in the transformation of pre-adipocytes into lipid-laden mature adipocytes. The intracellular accumulation of lipids is determined by conventional red oil staining (neutral lipid marker). The stained lipids can then be quantified under the microscope.
Protocol: 3T3-L1 cells were inoculated and cultured for 4 days (multiplication). This was followed by a differentiation phase (incubation with the conventional differentiation cocktail) and a maturation phase (maturation cocktail) in the absence or presence of sarsasapogenin at various concentrations.
At the end of that period, the cells were washed, fixed and stained with red oil. The cell layers were digitally photographed and the red staining quantified by image analysis.
The percentage red oil areas, shown in table 1, were expressed relative to the untreated control cells and the test was validated by comparison with pioglitazone (10 μM), the positive control for differentiation stimulation.

human adipocytes = experiment: Stimulation of lipid uptake in human adipocytes; format: cell-based
Text: 4. Stimulation of Lipid Uptake by 3T3-L1 Cells and Human Adipocytes
The results were reproduced using human adipocytes.

[3] = system: Human pre-adipocyte cells; experiment: Gene expression profile, effect on differentiation (pre-adipocyte culture, CodeLink Whole Genome chips); format: cell-based
Description: (§1) Two studies were conducted: one addressed the effect of sarsasapogenin on differentiation using a pre-adipocyte culture; the other addressed the effect of sarsasapogenin on mature adipocytes.
(§2) Human pre-adipocyte cells were inoculated and cultured (multiplication) for 5 days. Then: • either the cells were exposed to the induction medium in the presence or absence of sarsasapogenin for 8 or 24 h before culture arrest (study of the effect of sarsasapogenin on differentiation), • or the cells were exposed to the differentiation medium for 10 days, yielding mature adipocytes, then exposed or not exposed to sarsasapogenin for 24 h (study of the effect of sarsasapogenin on maturation).
(§3) At each time point, the mRNA of the cells was extracted using a commercially available kit (Roche Kit V6—Extraction of total RNA). In parallel, solvent controls were run and subjected to extraction in the same manner. The expression profile of the gene sequences was determined using CodeLink Whole Genome chips for each sample of RNA purified. The values obtained were normalized on the controls.

mature adipocytes = experiment: Gene expression profile, effect on mature adipocytes (CodeLink Whole Genome chips); format: cell-based, Human; details: mature adipocytes exposed 24 h
Description: as §1, §2, §3

3T3-L1 cells [4] = experiment: Residual proliferation capability during the differentiation phase (Hoechst test); format: cell-based; details: 3 days with differentiation cocktail
Description: The pre-adipocytes undergo a multiplication phase (clonal expansion) before beginning to differentiate.
A product stimulating proliferation would thus enable adipocytes that have already entered the differentiation phase to maintain a replication capability.
Protocol: 3T3-L1 cells were inoculated and cultured to confluence over 4 days (clonal expansion). The conventional differentiation cocktail was added to the culture and the cells were incubated in the absence (control) or in the presence of rising concentrations of sarsasapogenin for 3 days. Following incubation, the cell layers were harvested and subjected to a Hoechst test to quantify cell proliferation vs. the proliferation of the control cells and the cells incubated in the presence of pioglitazone (positive control).

[5] = time points 8 and 24 h of differentiation
[6] = values normalized on the controls, time point not stated

C[C@H]1CC[C@@]2(OC1)O[C@H]1C[C@H]3[C@@H]4CC[C@@H]5C[C@@H](O)CC[C@]5(C)[C@H]4CC[C@]3(C)[C@H]1[C@@H]2C [Sarsasapogenin, (3β, 5β, 25-S)-Spirostan-3-ol]
Change in G3PDH activity vs. control (%) (3T3-L1 cells [1]; 5 μM): +103% (p < 0.01)
Change in G3PDH activity vs. control (%) (3T3-L1 cells [1]; 10 μM): +201% (p < 0.01)
Change in G3PDH activity vs. control (%) (3T3-L1 cells [1]; 15 μM): +429% (p < 0.01)
Change in G3PDH activity vs. control (%) (3T3-L1 cells [1]; 17.5 μM): +535% (p < 0.01)
% change in red oil content vs. control (3T3-L1 cells [2]; 5 μM): +135%
% change in red oil content vs. control (3T3-L1 cells [2]; 10 μM): +274%
% change in red oil content vs. control (3T3-L1 cells [2]; 17.5 μM): +492%
% change in red oil content vs. control (3T3-L1 cells [2]; 17.5 μM, listed as sarsasapogenin): greater than 492%
lipid incorporation results in human adipocytes (human adipocytes): reproduced
activation of the gene coding for protein MNT (MAX binding protein) ([3]; after 8 and 24 h of differentiation, normalized on solvent controls): induces activation
cyclin D3 gene up-regulation ([3]; normalized on the controls): markedly up-regulated
gene coding for Kruppel-like factor 5 (KLF5) ([3]; normalized on the controls): increase
induction of NPTXR / pentraxin-related gene ([3]; time point 24 h, normalized on the controls): > 7
SLC2A5/GLUT5 gene activation [3, 5]: activated
gene RAFTLIN activation [3, 5]: activated
induction of adipose differentiation-related protein (ADRP) or adipophilin ([3]; values normalized on the controls, study and time point not stated): > 4
gene COPS3 up-regulation [3, 6]: > 5
gene COPS5 up-regulation [3, 6]: > 5
increase in KLK10 (kallikrein) [3, 6]: > 10
status of gene p21 (mature adipocytes): activated status of gene p21 was maintained
Proliferation vs. Control (3T3-L1 cells [4]; 5 μM): +20.5% (p < 0.01)
Proliferation vs. Control (3T3-L1 cells [4]; 10 μM): +31.6% (p < 0.01)
Proliferation vs. Control (3T3-L1 cells [4]; 20 μM): +35.2% (p < 0.01)

CCc1ccc(CCOc2ccc(CC3SC(=O)NC3=O)cc2)nc1 (stereo not shown) [pioglitazone, reference compound]
% change in red oil content vs. control (3T3-L1 cells [2]; 10 μM): +359%
Proliferation vs. Control (3T3-L1 cells [4]; 10 μM): +49% (p < 0.01)
